According to US12285459B2, “Saposin-A derived peptides and uses thereof” (CHILDREN'S MEDICAL CENTER CORPORATION, priority 2011, dated 2025):
“And” between values parts separate entries of the source, which are not always exact repeats. Equal values may be shown once. One block for each compound: values may come before it. Non-standard residues stand in square brackets, D forms with d. Residues, ends and D or L forms follow the SMILES beside them. No end group written: not given here. PEG2000 = polyethylene glycol 2000 attached at the N-terminus

How the values were obtained:
[1] = test system: Tsp-1 and p53 expression in prostate fibroblasts; assay: Tsp-1 and p53 expression in prostate fibroblasts treated with peptides, western blot; type: cell-based; settings: western blot; 10 ug/mL, 16 hours
Protocol: Methods of assaying the effects of a polypeptide described herein on Tsp-1 and p53 expression are described herein. Briefly, a control Psap alongside a test polypeptide, is applied to a cell culture of prostate fibroblasts. The conditioned media from PC3M-LN4 (LN4) and PC3 cells are used as controls, with PC3 as positive/stimulating control and LN4 as negative/inhibiting controls. After a period of incubation (˜16 h), the cells are harvested, rinsed, and lysed. The lysates are analyzed for the level of Tsp-1 and p53 expression by western blot analyses, with β-actin as the internal lysate protein loading control.
These peptides were used to treat prostate and lung fibroblasts in vitro at a concentration of 10 ug/mL for 16 hours in ATCC-specified media supplemented with 0.1% FBS. Tsp-1 and p53 expression was analyzed by western blot as described previously (Kang, Y., et al., (2003) Cancer Cell 3:537-549.)

Tsp-1 expression = settings: previously shown; cited from earlier work
[2] = test system: Tsp-1 and p53 expression in lungs; assay: Tumor-free mice given PC3M-LN4 conditioned media plus peptide; Tsp-1/p53 in tissue by western blot; type: in vivo, C57Bl6 mice; settings: PC3M-LN4 CM plus 30 mg/kg pegylated peptide daily, 9 days; compared with PC3 conditioned media
Protocol: For tumor-free analysis C57Bl6 mice were treated with 200 uL of PC3M-LN4 media alone or in combination with peptides described above at dose of 30 mg/kg/day for 5 days. After treatment the animals were sacrificed and the lungs were harvested, lysed and analyzed for Tsp-1 and p53 protein levels as described previously (Kang et al).
It was sought to determine whether there was a smaller domain within saposin A that contained the p53/Tsp-1 stimulating activity. […] C57Bl6 mice (5-6 wks old) were injected daily with 300 uL of serum free DMEM, conditioned media (CM) from non-metastatic PC3 cells, CM from metastatic PC3M-LN4 cells and PC3M-LN4 CM plus 30 mg/kg of the pegylated 6 amino acid polypeptide (PEG2000-CDWLPK (SEQ ID NO: 46)) or 30 mg/kg of the pegylated 18 amino acid polypeptide (PEG2000-[…] (SEQ ID NO: 47)). After 9 days the mice were euthanized and the lungs and livers harvested and either fixed in formalin or lysed for Western blot analysis.
Finally, the effect of substituting D-amino acids at different residues of the 4-amino acid peptide was analyzed. By Western blot analysis it was observed that substituting the first and third or second and fourth residues, in combination, had no effect on the Tsp-1 stimulating activity in vitro. These peptides were then tested in the tumor-free animal model described above. The normal 4-amino acid peptide and the D-amino acid substituted peptides were injected in combination with conditioned media from PC3M-LN4 cells in adult C57Bl6 mice for 4 days at a dose of 10 or 30 mg/kg/day via i.p. injection. Mice were sacrificed 24 hours after the treatment on day 4. The lungs of these mice were harvested and analyzed the Tsp-1 expression by Western blot analysis. […]
Methods: 18 C57Bl6 mice were injected with Ac-dWlP-amide (SEQ ID NO: 132) at a dose of 30 mg/kg in a volume of 100 μL via intraperitoneal (i.p) injections in serum starved conditioned media from PC3M-LN4 prostate cancer cells. […] The relative intensity of the Tsp-1 (normalized to β-Actin) bands were determined using a Bio-Rad Chemi-Doc XRS system.

[3] = test system: primary ovarian cancer cells; assay: Intraperitoneal metastatic ovarian cancer model, bioluminescence; type: in vivo, CB-17 SCID mice; settings: 2 mg/kg QOD from day 17
Protocol: For metastatic ovarian cancer cell injections, 5×10^6 viable primary ovarian cancer cells were injected into CB-17 SCID mice intraperitoneally in a volume of 0.1 ml. Tumor growth was monitored by live animal bioluminescence imaging (Xenogen) once per week. For in vivo determination of the metastatic burden, mice were anaesthetized and injected intraperitoneally with 75 mg/kg of D-luciferin (100 uL of 30 mg/mL in PBS). Metastatic growth was monitored over time using bioluminescence imaging performed with mice in a supine position 5 min after D-luciferin injection with a Xenogen IVIS system coupled to Living Image acquisition and analysis software (Xenogen). For BLI plots, photon flux was calculated for each mouse by using the same circular region of interest encompassing the abdomen of the mouse.
To determine whether DWLPK (SEQ ID NO: 4) could inhibit or regress existing ovarian metastases 5×10^6 primary ovarian cancer cells were injected intraperitoneally into SCID mice. After 17 days treatment was initiated with DWLPK (SEQ ID NO: 4) at a dose of 40 mg/kg QD, cisplatin at a dose of 2 mg/kg QOD, a combination of DWLPK (SEQ ID NO: 4) and cisplatin at the same doses, or PBS (control). It was observed that DWLPK (SEQ ID NO: 4) treatment completely regressed the metastases in 11/12 after 30 days and the regressed the metastases in the remaining mice by 99% (FIG. 20).

[4] = Peptide stability in mouse plasma, LC/MS; type: in vitro ADME, Swiss-Webster mice; settings: for Concentration: 800 ng/mL, 37° C.; for Percent of Nominal: nominal 800 ng/mL
Protocol: (§1) human plasma (Lot #BCE012312PM1, K3 EDTA) was obtained from BioChemed Services (Winchester, VA) and was stored at −80° C. Young adult male Swiss-Webster mice were obtained from Taconic Farms, and were anesthetized with carbon dioxide, and exsanguinated by cardiac puncture. Blood was collected in to tubes containing K2 EDTA and cooled in ice. Plasma was prepared by centrifugation for 10 min at 3000 g and 4° C. Mouse plasma and blood was used on the day of harvest.
(§2) Quenched matrix (human and mouse plasma) samples were prepared from one volume of plasma precipitated with three volumes of 9:1 acetonitrile:water at 4° C. and centrifuged for 10 min at 3000 g and 4° C., and the supernatant was used to prepare standard curve samples. A stock solution of 20 mg/mL Ac-DWLP-amide (SEQ ID NO: 133, Ac=acetyl group, amide=amide group) and 20 mg/mL Ac-dWlP-amide (SEQ ID NO: 132, DWLP with D-amino acids D and L indicated by lower case) was prepared in distilled water. Each peptide stock (20 mg/mL) was used to prepare a dilution in phosphate buffered saline (PBS) at 1 mg/mL and those samples were further diluted in PBS to prepare 100 and 50 μg/mL solutions. The 100 and 50 μg/mL solutions were added to the quenched matrix supernatant at concentrations equivalent to 0, 300, 1000, 3000, and 10000 ng/mL pre-quench plasma concentrations to prepare standard curve samples. Triplicate aliquots (100 μL) of each standard curve sample were diluted in 100 μL water prior to analysis by LC/MS.
(§3) The two peptides were formulated in PBS (40 μg/mL), and incubated with human and mouse plasma at 37° C. in polypropylene tubes at a concentration of 800 ng/mL in duplicate. Incubation aliquots (100 μL) were removed at 0, 15, 30, and 60 min and immediately quenched by the addition of 300 μL 9:1 acetonitrile:water, vortexed and centrifuged for 10 min at 3000 g and 4° C. Then 100 μL of each supernatant was diluted with 100 μL PBS prior to analysis by LC/MS.
(§4) Processed standard curve and incubation samples were analyzed using the method described in Table 1. The concentration of peptide in plasma was determined by extrapolation from the standard curve.

[5] = Peptide stability in human plasma, LC/MS; type: in vitro ADME; settings: for stability in human plasma / Concentration: 800 ng/mL, 37° C.; for stability in human plasma: 1 h; for Concentration / Percent of Nominal: human plasma; for Percent of Nominal: nominal 800 ng/mL
Protocol: as §1, §2, §3, §4

[6] = Peptide in plasma prepared from spiked mouse blood (partition into red blood cells), LC/MS; type: in vitro ADME, Swiss-Webster mice; settings: for Concentration in Mouse Plasma Prepared From Mouse Blood Incubated with Each Peptide: 800 ng/mL in chilled mouse blood, plasma prepared after five minutes; for partition between plasma fraction and red blood cells: mouse blood, 800 ng/mL
Protocol: as §1
The two peptides were formulated as for plasma and introduced into mouse blood chilled in an ice bath at a concentration of 800 ng/mL in duplicate. Five minutes after adding to blood, plasma was prepared and duplicate aliquots were extracted (as above) and analyzed by LC/MS.
as §4

[7] = mouse, in vivo; cited from earlier work

Compound: CDWLPKPNMSASC (also: cyclized, mode not given here) [13-amino acid cyclized peptide spanning residues 35-47 of saposin A]
stimulation of the expression of p53 and Tsp-1 in prostate fibroblasts [1]: able to stimulate the expression of p53 and Tsp-1
stimulating Tsp-1 expression in vitro and in vivo (Tsp-1 expression): capable of stimulating Tsp-1 expression in vitro and in vivo

Compound: PEG2000-EKTCDWLPKPNMSASCKE (cysteine pairing not given here)
stimulating the expression of Tsp-1 in the lung and liver [2]: as, or more, effective than PC3 conditioned media

Compound: N.N.[Cl][Pt][Cl] [cisplatin, reference compound]
course of tumors under cisplatin treatment [3]: developed resistance to cisplatin treatment after 20 days and began growing again

Compound: LEKTCDWLPKPNMSASCKEI
stimulating Tsp-1 expression in vitro and in vivo (Tsp-1 expression): capable of stimulating Tsp-1 expression in vitro and in vivo

Concentration ([4]; 0 min): 869 ng/mL and 955 ng/mL
Percent of Nominal ([4]; 0 min): 108.6% and 119.4%
Concentration ([4]; 15 min): 669 ng/mL and 605 ng/mL
Percent of Nominal ([4]; 15 min): 83.6% and 75.6%
Concentration ([4]; 30 min): 428 ng/mL and 400 ng/mL
Percent of Nominal ([4]; 30 min): 53.5% and 50.0%
Concentration ([4]; 60 min): 398 ng/mL and 463 ng/mL
Percent of Nominal ([4]; 60 min): 49.8% and 57.9%
stability in human plasma [5]: good stability
Concentration ([5]; 0 min): 649 ng/mL and 784 ng/mL
Percent of Nominal ([5]; 0 min): 81.1% and 98.0%
Concentration ([5]; 15 min): 760 ng/mL and 817 ng/mL
Percent of Nominal ([5]; 15 min): 95.0% and 102.1%
Concentration ([5]; 30 min): 538 ng/mL and 607 ng/mL
Percent of Nominal ([5]; 30 min): 67.3% and 75.9%
Concentration ([5]; 60 min): 634 ng/mL and 616 ng/mL
Percent of Nominal ([5]; 60 min): 79.3% and 77.0%
Compound: CC(=O)N[C@@H](CC(=O)O)C(=O)N[C@@H](Cc1c[nH]c2ccccc12)C(=O)N[C@@H](CC(C)C)C(=O)N1CCC[C@H]1C(N)=O [Ac-DWLP-amide] (Ac-DWLP-NH2)
Concentration in Mouse Plasma Prepared From Mouse Blood Incubated with Each Peptide [6]: 1580 ng/mL and 1510 ng/mL and 1530 ng/mL and 1610 ng/mL
partition between plasma fraction and red blood cells [6]: remain primarily in the plasma fraction and do not partition into red blood cells

Concentration ([4]; 0 min): 858 ng/mL and 859 ng/mL
Percent of Nominal ([4]; 0 min): 107.3% and 107.4%
Concentration ([4]; 15 min): 520 ng/mL and 462 ng/mL
Percent of Nominal ([4]; 15 min): 65.0% and 57.8%
Concentration ([4]; 30 min): 541 ng/mL and 496 ng/mL
Percent of Nominal ([4]; 30 min): 67.6% and 62.0%
Concentration ([4]; 60 min): 446 ng/mL and 469 ng/mL
Percent of Nominal ([4]; 60 min): 55.8% and 58.6%
stability in human plasma [5]: stable
Concentration ([5]; 0 min): 1050 ng/mL and 779 ng/mL
Percent of Nominal ([5]; 0 min): 131.3% and 97.4%
Concentration ([5]; 15 min): 941 ng/mL and 875 ng/mL
Percent of Nominal ([5]; 15 min): 117.6% and 109.4%
Concentration ([5]; 30 min): 863 ng/mL and 818 ng/mL
Percent of Nominal ([5]; 30 min): 107.9% and 102.3%
Concentration ([5]; 60 min): 1100 ng/mL and 901 ng/mL
Percent of Nominal ([5]; 60 min): 137.5% and 112.6%
Compound: CC(=O)N[C@H](CC(=O)O)C(=O)N[C@@H](Cc1c[nH]c2ccccc12)C(=O)N[C@H](CC(C)C)C(=O)N1CCC[C@H]1C(N)=O [Ac-dWlP-amide] (Ac-[dD]W[dL]P-NH2)
Concentration in Mouse Plasma Prepared From Mouse Blood Incubated with Each Peptide [6]: 1420 ng/mL and 1380 ng/mL and 1060 ng/mL and 1010 ng/mL
partition between plasma fraction and red blood cells [6]: remain primarily in the plasma fraction and do not partition into red blood cells

Compound: PEG2000-CDWLPK
stimulating the expression of Tsp-1 in the lung and liver [2]: as, or more, effective than PC3 conditioned media

Compound: CO[C@@H]1[C@H](OC(=O)NC(=O)CCl)CC[C@]2(CO2)[C@H]1[C@@]1(C)O[C@@H]1CC=C(C)C [TNP-470]
development of obesity in mice [7]: prevent diet-induced and genetic obesity
vascularity in the adipose tissue [7]: reduced vascularity in the adipose tissue
